Assay results published in ChEMBL document CHEMBL1121958, “A consideration for structure-taste correlations of perillartines using pattern-recognition techniques” (J Med Chem, 1982).

Test: Partition coefficient (logP)
Format: physicochemical
Settings: octanol/water

Compound | logP
O/N=C/C1=CC=CCC1 | 1.48
COC(C)C1CCC=C(/C=N/O)C1 (configuration not stated) | 1.4
COC(C)C1=CCC(/C=N/O)=CC1 (configuration not stated) | 1.1
COC(C)(CO)C1CC=C(/C=N/O)CC1 (configuration not stated) | -0.1
COCC(C)(OC)C1CC=C(/C=N/O)CC1 (configuration not stated) | 0.72
COCC(C)(O)C1CC=C(/C=N/O)CC1 (configuration not stated) | -0.1
CC1=CC=C(/C=N/O)CC1 | 0.78
COC(C)C1=CC=C(/C=N/O)CC1 (configuration not stated) | 1.1
C/C=C(C)/C=N/O | 0.87
COCC1=CCC(/C=N/O)=CC1 | 0.8
COC(C)C1=CCC=C(/C=N/O)C1 (configuration not stated) | 1.1
O/N=C/C1=CC2C=CC1CC2 (configuration not stated) | 1.9
CC(O)(CO)C1CC=C(/C=N/O)CC1 (configuration not stated) | -0.92

Next, values leading:

logP | Compound
2.58 | C=C(C)C1CC=C(/C=N/O)CC1 (configuration not stated)
0.8 | COCC1CCC=C(/C=N/O)C1 (configuration not stated)
-0.72 | O/N=C/C1=CCCOC1
0.34 | O/N=C/C1=CCSCC1
-0.72 | O/N=C/C1=CCOCC1
2.28 | C=CC1CC=C(/C=N/O)CC1 (configuration not stated)
1.48 | O/N=C/C1=CCCCC1
1.4 | COC(C)C1CC=C(/C=N/O)CC1 (configuration not stated)
1.1 | COCC1CC=C(/C=N/O)CC1 (configuration not stated)
